From patent US10189845B2, “4,6-substituted-pyrazolo[1,5-a]pyrazines as janus kinase inhibitors” (ARRAY BIOPHARMA INC., priority 2014, dated 2019)
Counter-ions that a name gives are not always drawn. Like-named read-outs stand apart in the source and are kept apart here.

Assays:
Assay type in all cases: biochemical
Human Tyk2 kinase domain = Human Tyk2 kinase domain (Homo sapiens (Human), UniProt P29597); experiment: Tyk2 Inhibition Assay (Example A, Omnia kinase fluorescence peptide substrate assay); conditions: TYK2 Enzyme IC50 1 mM ATP, averaged IC50 ranges
Chain of Human Tyk2 kinase domain (P29597 886-1187): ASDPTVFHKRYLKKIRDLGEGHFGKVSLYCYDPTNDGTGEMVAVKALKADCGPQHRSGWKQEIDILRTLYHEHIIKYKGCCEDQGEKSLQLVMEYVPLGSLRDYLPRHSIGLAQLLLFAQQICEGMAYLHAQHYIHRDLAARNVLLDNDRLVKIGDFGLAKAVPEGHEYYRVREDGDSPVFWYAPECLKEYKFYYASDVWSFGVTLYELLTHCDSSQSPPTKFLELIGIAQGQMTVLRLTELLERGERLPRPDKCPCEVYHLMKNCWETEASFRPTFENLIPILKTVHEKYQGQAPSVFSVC
Method in brief: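 Omnia Sox-peptide kinetic fluorescence assay (ex 360/em 485 nm, read every 50 s for 45 min) with 1 nM human Tyk2 kinase domain (aa 886–1187, His tag cleaved, baculovirus-expressed), 1 mM ATP, 8 μM Omnia Y12 peptide, in 25 mM HEPES pH 7.4, 10 mM MgCl2, 0.01% Triton X-100, 1 mM DTT, 2% DMSO. IC50 from 4-parameter logistic fit of percent of control.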

JAK3 = JAK3 (Homo sapiens (Human), UniProt P52333); experiment: JAK3 Inhibition Assay (Example D, Omnia kinase fluorescence peptide substrate assay)
Chain of JAK3 (P52333 whole entry): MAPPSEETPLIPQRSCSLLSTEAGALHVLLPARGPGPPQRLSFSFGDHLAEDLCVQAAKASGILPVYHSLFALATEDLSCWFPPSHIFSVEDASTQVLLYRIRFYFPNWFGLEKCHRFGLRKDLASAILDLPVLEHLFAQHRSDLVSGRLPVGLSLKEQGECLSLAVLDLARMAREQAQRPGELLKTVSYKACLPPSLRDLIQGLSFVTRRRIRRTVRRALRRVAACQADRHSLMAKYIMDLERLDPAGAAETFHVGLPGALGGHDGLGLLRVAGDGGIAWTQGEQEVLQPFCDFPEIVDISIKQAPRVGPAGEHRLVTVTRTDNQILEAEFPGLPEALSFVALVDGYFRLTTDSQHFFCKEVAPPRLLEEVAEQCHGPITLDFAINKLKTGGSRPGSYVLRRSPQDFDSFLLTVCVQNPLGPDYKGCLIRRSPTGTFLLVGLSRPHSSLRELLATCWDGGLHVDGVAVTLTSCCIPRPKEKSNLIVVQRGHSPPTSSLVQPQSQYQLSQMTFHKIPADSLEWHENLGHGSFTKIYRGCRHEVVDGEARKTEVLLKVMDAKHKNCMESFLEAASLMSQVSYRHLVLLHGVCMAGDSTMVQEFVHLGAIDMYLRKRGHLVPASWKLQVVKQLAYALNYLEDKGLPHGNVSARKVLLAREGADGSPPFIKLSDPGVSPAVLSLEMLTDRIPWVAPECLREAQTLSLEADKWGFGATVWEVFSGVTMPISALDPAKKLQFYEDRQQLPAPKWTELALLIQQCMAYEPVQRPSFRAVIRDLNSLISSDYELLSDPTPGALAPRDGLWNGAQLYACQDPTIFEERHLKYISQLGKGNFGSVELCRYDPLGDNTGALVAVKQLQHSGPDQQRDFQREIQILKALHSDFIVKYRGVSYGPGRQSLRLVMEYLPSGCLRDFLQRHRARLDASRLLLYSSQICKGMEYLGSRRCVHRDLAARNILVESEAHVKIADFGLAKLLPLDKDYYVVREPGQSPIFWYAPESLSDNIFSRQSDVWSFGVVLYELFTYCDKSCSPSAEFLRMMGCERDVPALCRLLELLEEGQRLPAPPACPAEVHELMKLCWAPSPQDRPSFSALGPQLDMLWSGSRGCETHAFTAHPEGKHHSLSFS
Method in brief: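 Mixture held 2 nM JAK3, 1 mM ATP and 10 μM Omnia Y7 peptide in 25 mM HEPES pH 7.4, 10 mM MgCl2, 0.01% Triton X-100, 1 mM DTT, 2% DMSO final. Sox fluorescence (ex 360/em 485 nm) was read every 50 s for 45 min. IC50 came from a 4-parameter logistic fit of percent of control.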

JAK2 = JAK2 (Homo sapiens (Human), UniProt O60674); experiment: JAK2 Inhibition Assay (Example C, Omnia kinase fluorescence peptide substrate assay); conditions: JAK2 Enzyme IC50 1 mM ATP, averaged IC50 ranges
Chain of JAK2 (O60674 whole entry): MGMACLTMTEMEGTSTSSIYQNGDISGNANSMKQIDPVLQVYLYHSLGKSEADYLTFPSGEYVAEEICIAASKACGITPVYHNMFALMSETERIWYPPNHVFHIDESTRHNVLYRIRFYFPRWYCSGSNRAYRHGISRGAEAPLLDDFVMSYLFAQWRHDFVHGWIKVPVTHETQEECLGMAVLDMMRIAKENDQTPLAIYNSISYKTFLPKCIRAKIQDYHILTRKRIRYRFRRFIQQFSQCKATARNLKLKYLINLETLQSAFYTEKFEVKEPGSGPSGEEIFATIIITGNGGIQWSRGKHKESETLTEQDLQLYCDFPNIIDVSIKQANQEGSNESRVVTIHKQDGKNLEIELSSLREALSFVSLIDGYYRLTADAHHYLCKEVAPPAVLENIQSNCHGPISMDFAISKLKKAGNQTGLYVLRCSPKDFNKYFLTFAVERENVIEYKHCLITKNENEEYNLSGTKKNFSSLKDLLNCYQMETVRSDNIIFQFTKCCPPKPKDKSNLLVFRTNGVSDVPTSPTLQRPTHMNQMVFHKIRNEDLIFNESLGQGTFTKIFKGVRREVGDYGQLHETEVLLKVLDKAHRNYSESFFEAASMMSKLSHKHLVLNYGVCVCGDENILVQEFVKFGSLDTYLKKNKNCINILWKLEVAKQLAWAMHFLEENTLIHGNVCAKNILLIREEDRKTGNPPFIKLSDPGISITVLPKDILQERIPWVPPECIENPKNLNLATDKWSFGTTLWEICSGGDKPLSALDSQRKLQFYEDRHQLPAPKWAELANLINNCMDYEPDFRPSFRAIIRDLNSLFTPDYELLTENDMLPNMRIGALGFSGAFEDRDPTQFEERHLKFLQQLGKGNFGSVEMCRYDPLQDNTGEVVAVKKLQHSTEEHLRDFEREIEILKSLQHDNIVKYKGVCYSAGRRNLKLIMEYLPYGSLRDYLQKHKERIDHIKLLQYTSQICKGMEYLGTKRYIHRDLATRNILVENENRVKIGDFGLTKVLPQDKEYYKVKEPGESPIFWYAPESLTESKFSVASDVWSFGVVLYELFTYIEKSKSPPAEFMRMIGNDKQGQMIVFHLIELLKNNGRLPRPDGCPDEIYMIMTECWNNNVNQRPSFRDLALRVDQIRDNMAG
Method in brief: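 4 nM JAK2 with 1 mM ATP and 10 μM Omnia Y7 peptide in 25 mM HEPES pH 7.4, 10 mM MgCl2, 0.01% Triton X-100, 1 mM DTT, 2% DMSO. Sox fluorescence (ex 360/em 485 nm) read every 50 s for 45 min; IC50 from 4-parameter fit of percent of control.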

JAK1 = JAK1 (Homo sapiens (Human), UniProt P23458); experiment: JAK1 Inhibition Assay (Example B, Omnia kinase fluorescence peptide substrate assay)
Chain of JAK1 (P23458 whole entry): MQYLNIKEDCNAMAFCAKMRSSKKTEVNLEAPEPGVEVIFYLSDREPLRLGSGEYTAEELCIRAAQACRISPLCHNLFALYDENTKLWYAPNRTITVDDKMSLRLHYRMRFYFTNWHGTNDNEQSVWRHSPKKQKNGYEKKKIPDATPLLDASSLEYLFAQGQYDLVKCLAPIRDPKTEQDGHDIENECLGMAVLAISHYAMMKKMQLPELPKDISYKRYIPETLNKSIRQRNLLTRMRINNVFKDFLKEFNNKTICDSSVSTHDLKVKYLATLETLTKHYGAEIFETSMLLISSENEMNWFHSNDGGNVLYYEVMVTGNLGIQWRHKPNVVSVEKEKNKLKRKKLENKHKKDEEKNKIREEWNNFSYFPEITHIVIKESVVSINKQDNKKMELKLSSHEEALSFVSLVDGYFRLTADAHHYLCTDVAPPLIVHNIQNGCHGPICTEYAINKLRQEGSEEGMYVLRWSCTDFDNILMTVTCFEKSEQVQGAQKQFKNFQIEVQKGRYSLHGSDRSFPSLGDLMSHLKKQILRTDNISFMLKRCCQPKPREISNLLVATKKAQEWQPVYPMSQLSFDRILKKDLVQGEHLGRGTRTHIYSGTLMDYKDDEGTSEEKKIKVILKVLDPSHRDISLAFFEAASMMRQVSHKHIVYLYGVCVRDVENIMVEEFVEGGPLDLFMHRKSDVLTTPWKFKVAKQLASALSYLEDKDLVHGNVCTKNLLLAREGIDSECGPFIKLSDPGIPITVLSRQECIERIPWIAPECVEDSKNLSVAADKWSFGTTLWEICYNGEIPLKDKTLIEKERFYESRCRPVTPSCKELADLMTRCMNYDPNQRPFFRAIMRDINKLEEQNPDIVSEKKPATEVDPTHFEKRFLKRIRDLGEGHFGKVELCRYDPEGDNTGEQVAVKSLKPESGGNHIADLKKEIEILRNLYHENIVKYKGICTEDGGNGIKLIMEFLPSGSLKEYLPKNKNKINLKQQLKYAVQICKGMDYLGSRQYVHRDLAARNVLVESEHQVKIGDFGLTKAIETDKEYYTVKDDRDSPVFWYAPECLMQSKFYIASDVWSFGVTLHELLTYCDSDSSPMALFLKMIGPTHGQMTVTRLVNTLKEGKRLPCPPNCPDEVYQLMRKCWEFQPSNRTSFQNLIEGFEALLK
Method in brief: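 Recombinant human JAK1 (12.5 nM) with 1 mM ATP and 8 μM Omnia Y12 Sox-peptide in 25 mM HEPES pH 7.4, 10 mM MgCl2, 0.01% Triton X-100, 1 mM DTT, 2% DMSO final. Phosphorylation read kinetically (ex 360/em 485 nm, 45 min); IC50 from 4-parameter fit of percent of control.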

[1] = JAK1 Enzyme IC50 1 mM ATP, 1 mM ATP, averaged IC50 ranges

SMILES | IC50 (Human Tyk2 kinase domain) [nM] | IC50 (JAK3) [nM] | IC50 (JAK2) [nM] | IC50 (JAK1; [1]) [nM] | IC50 (JAK1) [nM]
CCC(c1ccccc1)n1cc(-c2nc(-c3cnn(C[C@@H](O)CO)c3)cn3nccc23)cn1 (stereo partly drawn) [Example 66, (2R)-3-(4-(4-(1-(1-phenylpropyl)-1H-pyrazol-4-yl)pyrazolo[1,5-a]pyrazin-6-yl)-1H-pyrazol-1-yl)propane-1,2-diol] | 10 to 100 | 100 to 1000 | 10 to 100 | 10 to 100 | 
CCC(CC)n1cc(-c2nc(-c3cnn(CCN[C@@H]4CCN(C)C4=O)c3)cn3nccc23)cn1 [Example 143, (R)-1-methyl-3-((2-(4-(4-(1-(pentan-3-yl)-1H-pyrazol-4-yl)pyrazolo[1,5-a]pyrazin-6-yl)-1H-pyrazol-1-yl)ethyl)amino)pyrrolidin-2-one] | 100 to 1000 | 1000 to 10000 | 10 to 100 |  | 1000 to 10000
CCC(CC)n1cc(-c2nc(-c3cnn([C@H]4CCC[C@H]4O)c3)cn3nccc23)cn1 (single isomer, unassigned) [compound 190] | 100 to 1000 | 1000 to 10000 | 100 to 1000 | 1000 to 10000 | 
CCC(C1CC(F)(F)C1)n1cc(-c2nc(-c3cnn(C[C@@H](O)CO)c3)cn3nccc23)cn1 (stereo partly drawn) [Example 79, (2R)-3-(4-(4-(1-(1-(3,3-difluorocyclobutyl)propyl)-1H-pyrazol-4-yl)pyrazolo[1,5-a]pyrazin-6-yl)-1H-pyrazol-1-yl)propane-1,2-diol] | 10 to 100 | 1000 to 10000 | 10 to 100 |  | 10 to 100
CCC(CC)n1cc(-c2nc(-c3cnn(CCNC4CC4)c3)cn3nccc23)cn1 [Example 134, N-(2-(4-(4-(1-(pentan-3-yl)-1H-pyrazol-4-yl)pyrazolo[1,5-a]pyrazin-6-yl)-1H-pyrazol-1-yl)ethyl)cyclopropanamine trifluoroacetate] | 10 to 100 | 1000 to 10000 | 10 to 100 |  | 10 to 100
CCC(CC)n1cc(-c2nc(-c3cnn([C@H](C)[C@@H](C)O)c3)cn3nccc23)cn1 (single isomer, unassigned) [Example 156] | 10 to 100 | 1000 to 10000 | 10 to 100 | 100 to 1000 | 
CCC(CC)n1cc(-c2nc(-c3cnn([C@@H]4CCCNC4)c3)cn3nccc23)cn1 [Example 29, (R)-4-(1-(pentan-3-yl)-1H-pyrazol-4-yl)-6-(1-(piperidin-3-yl)-1H-pyrazol-4-yl)pyrazolo[1,5-a]pyrazine] | 10 to 100 | 1000 to 10000 | 10 to 100 |  | 100 to 1000
CCC(CC)n1cc(-c2nc(-c3cnn(C[C@@](C)(O)CO)c3)cn3nccc23)cn1 (single isomer, unassigned) [Example 202] | 10 to 100 | 1000 to 10000 | 10 to 100 |  | 100 to 1000
CCC(CC)n1cc(-c2nc(-c3cnn(C[C@H](O)C(C)(C)O)c3)cn3nccc23)cn1 [Example 56, (S)-3-methyl-1-(4-(4-(1-(pentan-3-yl)-1H-pyrazol-4-yl)pyrazolo[1,5-a]pyrazin-6-yl)-1H-pyrazol-1-yl)butane-2,3-diol] | 10 to 100 | 1000 to 10000 | 10 to 100 |  | 1000 to 10000
C[C@@H]1CCCC[C@H]1n1cc(-c2nc(-c3cnn(C[C@H](O)CO)c3)cn3nccc23)cn1 (single isomer, unassigned) [Example 152] | 10 to 100 | 1000 to 10000 | 10 to 100 | 1000 to 10000 | 
CC[C@H]1CCC[C@H]1n1cc(-c2nc(-c3cnn(C[C@@H](O)CO)c3)cn3nccc23)cn1 (single isomer, unassigned) [Example 208] | 100 to 1000 | 1000 to 10000 | 10 to 100 | 1000 to 10000 | 
CCC(CC)n1cc(-c2nc(-c3cnn([C@@H]4CCC[C@@H]4O)c3)cn3nccc23)cn1 [Example 189, (1S,2R)-2-(4-(4-(1-(pentan-3-yl)-1H-pyrazol-4-yl)pyrazolo[1,5-a]pyrazin-6-yl)-1H-pyrazol-1-yl)cyclopentanol] | 10 to 100 | 1000 to 10000 | 10 to 100 | 1000 to 10000 | 
CC[C@H](C)n1cc(-c2nc(-c3cnn(C[C@H](O)CO)c3)cn3nccc23)cn1 [Example 70, (S)-3-(4-(4-(1-((S)-sec-butyl)-1H-pyrazol-4-yl)pyrazolo[1,5-a]pyrazin-6-yl)-1H-pyrazol-1-yl)propane-1,2-diol hydrochloride] | 10 to 100 | 1000 to 10000 | 10 to 100 |  | 100 to 1000
CC[C@H](C1CCC1)n1cc(-c2nc(-c3cnn(C[C@@H](O)CO)c3)cn3nccc23)cn1 (single isomer, unassigned) [Example 196] | 100 to 1000 | 1000 to 10000 | 100 to 1000 | 1000 to 10000 | 
CCC(CC)n1cc(-c2nc(-c3cnn(C[C@@H](O)C(C)(C)O)c3)cn3nccc23)cn1 [Example 57, (R)-3-methyl-1-(4-(4-(1-(pentan-3-yl)-1H-pyrazol-4-yl)pyrazolo[1,5-a]pyrazin-6-yl)-1H-pyrazol-1-yl)butane-2,3-diol] | 10 to 100 | 1000 to 10000 | 10 to 100 |  | 100 to 1000
CCC(CC)n1cc(-c2nc(-c3cnn(C[C@H](O)CN4CC(OC)C4)c3)cn3nccc23)cn1 [Example 103, (R)-1-(3-methoxyazetidin-1-yl)-3-(4-(4-(1-(pentan-3-yl)-1H-pyrazol-4-yl)pyrazolo[1,5-a]pyrazin-6-yl)-1H-pyrazol-1-yl)propan-2-ol] | 10 to 100 | 1000 to 10000 | 10 to 100 | 1000 to 10000 | 
CCC(C)n1cc(-c2nc(-c3cnn(C[C@@H](O)CO)c3)cn3nccc23)cn1 (stereo partly drawn) [Example 67, (2R)-3-(4-(4-(1-(sec-butyl)-1H-pyrazol-4-yl)pyrazolo[1,5-a]pyrazin-6-yl)-1H-pyrazol-1-yl)propane-1,2-diol] | 100 to 1000 | 100 to 1000 | 10 to 100 | 100 to 1000 | 
C[C@@H](CC(F)(F)F)n1cc(-c2nc(-c3cnn(C[C@@H](O)CO)c3)cn3nccc23)cn1 [Example 195, (R)-3-(4-(4-(1-((S)-4,4,4-trifluorobutan-2-yl)-1H-pyrazol-4-yl)pyrazolo[1,5-a]pyrazin-6-yl)-1H-pyrazol-1-yl)propane-1,2-diol hydrochloride] | 100 to 1000 | 1000 to 10000 | 100 to 1000 | 1000 to 10000 | 
CCC(CC)n1cc(-c2nc(-c3cnn(C[C@@H](C)CO)c3)cn3nccc23)cn1 [Example 14, (R)-2-methyl-3-(4-(4-(1-(pentan-3-yl)-1H-pyrazol-4-yl)pyrazolo[1,5-a]pyrazin-6-yl)-1H-pyrazol-1-yl)propan-1-ol] | 10 to 100 | 1000 to 10000 | 10 to 100 | 10 to 100 | 
Cn1cc(-c2cn3nccc3c(-c3cnn(C4(C)CCCC4)c3)n2)cn1 [Example 49, 6-(1-methyl-1H-pyrazol-4-yl)-4-(1-(1-methylcyclopentyl)-1H-pyrazol-4-yl)pyrazolo[1,5-a]pyrazine] | 100 to 1000 | 1000 to 10000 | 1000 to 10000 |  | 1000 to 10000
CCC(CC)n1cc(-c2nc(-c3cnn(C[C@@H](CO)N(C)C)c3)cn3nccc23)cn1 [Example 129, (S)-2-(dimethylamino)-3-(4-(4-(1-(pentan-3-yl)-1H-pyrazol-4-yl)pyrazolo[1,5-a]pyrazin-6-yl)-1H-pyrazol-1-yl)propan-1-ol] | 10 to 100 | 1000 to 10000 | 10 to 100 | 100 to 1000 | 
CC(C)C[C@@H](C)n1cc(-c2nc(-c3cnn(C(CO)CO)c3)cn3nccc23)cn1 [Example 88, (R)-2-(4-(4-(1-(4-methylpentan-2-yl)-1H-pyrazol-4-yl)pyrazolo[1,5-a]pyrazin-6-yl)-1H-pyrazol-1-yl)propane-1,3-diol] | 100 to 1000 | 1000 to 10000 | 100 to 1000 |  | 1000 to 10000
CCC(CC)n1cc(-c2nc(-c3cnn(C[C@](C)(O)CO)c3)cn3nccc23)cn1 (single isomer, unassigned) [Example 203] | 10 to 100 | 1000 to 10000 | 10 to 100 |  | 100 to 1000
CCC(CC)n1cc(-c2nc(-c3cnn(CCS(=O)(=O)N(C)C)c3)cn3nccc23)cn1 [Example 23, N,N-dimethyl-2-(4-(4-(1-(pentan-3-yl)-1H-pyrazol-4-yl)pyrazolo[1,5-a]pyrazin-6-yl)-1H-pyrazol-1-yl)ethanesulfonamide] | 10 to 100 | 1000 to 10000 | 10 to 100 |  | 100 to 1000
CCC(CCO)n1cc(-c2nc(-c3cnn(C)c3)cn3nccc23)cn1 (stereo not shown) [Example 47, 3-(4-(6-(1-methyl-1H-pyrazol-4-yl)pyrazolo[1,5-a]pyrazin-4-yl)-1H-pyrazol-1-yl)pentan-1-ol] | 1000 to 10000 | 1000 to 10000 | 1000 to 10000 |  | 1000 to 10000
